Test results: ChEMBL document CHEMBL4321854, “Discovery of a First-in-Class Mitogen-Activated Protein Kinase Kinase 1/2 Degrader” (J Med Chem, 2019)
Activity calls are given as the source filed them. No cut-off for these calls is given here.

Key:
[1] = target: T1, von Hippel-Lindau disease tumor suppressor/Dual specificity mitogen-activated protein kinase kinase 2/Dual specificity mitogen-activated protein kinase kinase 1 (Homo sapiens) (UniProt P36507+Q02750+P40337); test: Protac activity against VHL/MEK1/2 in human SK-MEL-28 cells harboring with BRAF V600E variant assessed as phosphorylation of ERK at T202/Y204 residues at 0.3 uM pretreated with VHL ligand, VH 032 for 2 hrs followed by incubation with compound for 10 hrs by Western blot analysis; assay type: cell-based
T1 sequence (P36507 whole entry, looked up): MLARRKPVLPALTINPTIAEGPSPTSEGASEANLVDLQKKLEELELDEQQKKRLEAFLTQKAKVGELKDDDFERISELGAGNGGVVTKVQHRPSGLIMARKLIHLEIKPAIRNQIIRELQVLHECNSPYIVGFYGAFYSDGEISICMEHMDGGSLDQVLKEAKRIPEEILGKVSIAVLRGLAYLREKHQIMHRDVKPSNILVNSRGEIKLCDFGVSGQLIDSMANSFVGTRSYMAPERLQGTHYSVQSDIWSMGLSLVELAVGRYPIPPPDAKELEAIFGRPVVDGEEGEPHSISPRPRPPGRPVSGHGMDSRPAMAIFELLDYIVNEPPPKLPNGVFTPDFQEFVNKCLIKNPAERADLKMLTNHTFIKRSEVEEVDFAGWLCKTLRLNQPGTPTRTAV
T1 sequence (P40337 whole entry, looked up): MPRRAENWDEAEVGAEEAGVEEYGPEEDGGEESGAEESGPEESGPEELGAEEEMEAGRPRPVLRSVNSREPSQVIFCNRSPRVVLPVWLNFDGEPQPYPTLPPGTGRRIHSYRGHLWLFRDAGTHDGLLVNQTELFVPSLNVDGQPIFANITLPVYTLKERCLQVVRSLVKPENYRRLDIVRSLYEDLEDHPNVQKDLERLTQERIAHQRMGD
T1 sequence (Q02750 whole entry, looked up): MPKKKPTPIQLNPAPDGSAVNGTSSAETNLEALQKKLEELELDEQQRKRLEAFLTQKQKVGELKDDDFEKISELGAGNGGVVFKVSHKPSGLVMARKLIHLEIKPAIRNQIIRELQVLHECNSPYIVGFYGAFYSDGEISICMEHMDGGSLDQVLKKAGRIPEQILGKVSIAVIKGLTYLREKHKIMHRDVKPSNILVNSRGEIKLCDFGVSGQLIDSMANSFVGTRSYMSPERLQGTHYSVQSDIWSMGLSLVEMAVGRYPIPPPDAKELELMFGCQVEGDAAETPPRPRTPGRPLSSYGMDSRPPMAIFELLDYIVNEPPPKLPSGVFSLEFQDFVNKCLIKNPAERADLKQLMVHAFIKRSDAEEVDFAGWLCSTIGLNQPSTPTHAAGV

[2] = target: T1, von Hippel-Lindau disease tumor suppressor/Dual specificity mitogen-activated protein kinase kinase 2/Dual specificity mitogen-activated protein kinase kinase 1 (Homo sapiens); test: Protac activity against VHL/MEK1/2 in human SK-MEL-28 cells harboring with BRAF V600E variant assessed as phosphorylation of MEK at S218/222 residues at 0.3 uM pretreated with proteasome inhibitor, MG-132 for 2 hrs followed by incubation with compound for 10 hrs by Western blot analysis; assay type: cell-based
[3] = Toxicity in Swiss albino mouse assessed as effect on clinical signs at 50 mg/kg, ip; assay type: organism-based; conditions: in vivo
[4] = target: T1, von Hippel-Lindau disease tumor suppressor/Dual specificity mitogen-activated protein kinase kinase 2/Dual specificity mitogen-activated protein kinase kinase 1 (Homo sapiens); test: Protac activity against VHL/MEK1/2 in human HT-29 cells harboring with BRAF V600E variant assessed as reduction in phosphorylation of ERK at T202/Y204 residues after 24 hrs by Western blot analysis; assay type: cell-based
[5] = target: T2, von Hippel-Lindau disease tumor suppressor/Dual specificity mitogen-activated protein kinase kinase 2 (Homo sapiens) (UniProt P36507+P40337); test: Protac activity against VHL/MEK2 in human SK-MEL-28 cells harboring with BRAF V600E variant assessed as degradation of MEK2 at 0.1 to 0.3 uM by Western blot analysis; assay type: cell-based; conditions: TDE = time-dependent effect
T2 sequence (P36507 whole entry, looked up): as the sequence (P36507 whole entry, looked up) above
T2 sequence (P40337 whole entry, looked up): as the sequence (P40337 whole entry, looked up) above

[6] = target: T2, von Hippel-Lindau disease tumor suppressor/Dual specificity mitogen-activated protein kinase kinase 2 (Homo sapiens); test: (§1) Protac activity against VHL/MEK2 in human HT-29 cells harboring with BRAF V600E variant assessed as degradation of MEK2 by measuring MEK2 protein level at 0.3 uM pretreated with NEDD8-activating enzyme inhibitor, MLN4924 for 2 hrs followed by incubation with compound for 10 hrs by Western blot analysis; assay type: cell-based
[7] = target: T2, von Hippel-Lindau disease tumor suppressor/Dual specificity mitogen-activated protein kinase kinase 2 (Homo sapiens); test: as §1, with “SK-MEL-28” for “HT-29”; assay type: cell-based
[8] = target: T2, von Hippel-Lindau disease tumor suppressor/Dual specificity mitogen-activated protein kinase kinase 2 (Homo sapiens); test: Protac activity against VHL/MEK2 in human COLO205 cells harboring with BRAF V600E variant assessed as degradation of MEK2 at 3 to 5 uM after 24 hrs by Western blot analysis; assay type: cell-based
[9] = target: T1, von Hippel-Lindau disease tumor suppressor/Dual specificity mitogen-activated protein kinase kinase 2/Dual specificity mitogen-activated protein kinase kinase 1 (Homo sapiens); test: Protac activity against VHL/MEK1/2 in human HT-29 cells harboring with BRAF V600E variant assessed as phosphorylation of ERK at T202/Y204 residues at 0.3 uM pretreated with NEDD8-activating enzyme inhibitor, MLN4924 for 2 hrs followed by incubation with compound for 10 hrs by Western blot analysis; assay type: cell-based
[10] = target: T3, von Hippel-Lindau disease tumor suppressor/Dual specificity mitogen-activated protein kinase kinase 1 (Homo sapiens) (UniProt Q02750+P40337); test: Protac activity against VHL/MEK1 in human HT-29 cells harboring with BRAF V600E variant assessed as degradation of MEK1 by measuring MEK1 protein level at 0.3 uM pretreated with VHL ligand, VH 032 for 2 hrs followed by incubation with compound for 10 hrs by Western blot analysis; assay type: cell-based
T3 sequence (P40337 whole entry, looked up): as above
T3 sequence (Q02750 whole entry, looked up): as the sequence (Q02750 whole entry, looked up) above

[11] = target: T2, von Hippel-Lindau disease tumor suppressor/Dual specificity mitogen-activated protein kinase kinase 2 (Homo sapiens); test: Protac activity against VHL/MEK2 in human SK-MEL-28 cells harboring with BRAF V600E variant assessed as degradation of MEK2 by measuring MEK2 protein level at 0.3 uM pretreated with proteasome inhibitor, MG-132 for 2 hrs followed by incubation with compound for 10 hrs by Western blot analysis; assay type: cell-based
UACC-257 = test: Effect on total ERK protein expression in human UACC257 cells at 0.001 to 5 uM after 24 hrs by Western blot analysis; assay type: functional, cell-based
[12] = target: von Hippel-Lindau disease tumor suppressor/Leukocyte receptor cluster member 8 (Homo sapiens) (UniProt P40337+Q96PV6); test: Protac activity against VHL/LENG8 in human HT-29 cells harboring with BRAF V600E variant assessed as reduction in LENG8 protein level at 0.1 uM after 10 hrs by LC-MS based Volcano plot analysis; assay type: cell-based
Chain of von Hippel-Lindau disease tumor suppressor/Leukocyte receptor cluster member 8 (Homo sapiens) (P40337 whole entry, looked up): as the sequence (P40337 whole entry, looked up) above
Chain of von Hippel-Lindau disease tumor suppressor/Leukocyte receptor cluster member 8 (Homo sapiens) (Q96PV6 whole entry, looked up): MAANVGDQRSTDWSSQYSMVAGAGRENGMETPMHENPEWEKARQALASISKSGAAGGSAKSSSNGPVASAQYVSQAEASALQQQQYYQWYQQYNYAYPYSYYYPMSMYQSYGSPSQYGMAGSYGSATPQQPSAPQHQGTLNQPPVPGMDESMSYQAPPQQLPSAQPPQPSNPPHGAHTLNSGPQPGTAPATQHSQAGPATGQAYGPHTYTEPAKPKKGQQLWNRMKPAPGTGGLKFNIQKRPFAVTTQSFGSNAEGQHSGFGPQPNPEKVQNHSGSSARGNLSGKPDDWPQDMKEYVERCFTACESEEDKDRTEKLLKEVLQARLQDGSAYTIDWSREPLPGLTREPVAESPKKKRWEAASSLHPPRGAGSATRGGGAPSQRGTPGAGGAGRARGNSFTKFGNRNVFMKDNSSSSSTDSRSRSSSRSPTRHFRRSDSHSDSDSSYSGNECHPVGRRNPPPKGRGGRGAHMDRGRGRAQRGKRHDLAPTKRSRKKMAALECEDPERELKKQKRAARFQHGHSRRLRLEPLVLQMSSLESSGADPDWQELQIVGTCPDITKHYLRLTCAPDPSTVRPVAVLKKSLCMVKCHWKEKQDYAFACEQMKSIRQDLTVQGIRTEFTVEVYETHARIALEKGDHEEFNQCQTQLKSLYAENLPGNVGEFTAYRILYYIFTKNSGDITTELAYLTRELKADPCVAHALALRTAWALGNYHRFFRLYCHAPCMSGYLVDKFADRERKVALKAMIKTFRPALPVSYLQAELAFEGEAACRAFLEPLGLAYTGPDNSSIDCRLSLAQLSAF

HT-29 = test: Antiproliferative activity against human HT-29 cells assessed as reduction in cell growth after 3 days by MTT assay; assay type: functional
[13] = target: T3, von Hippel-Lindau disease tumor suppressor/Dual specificity mitogen-activated protein kinase kinase 1 (Homo sapiens); test: Protac activity against VHL/MEK1 in human HT-29 cells harboring with BRAF V600E variant assessed as degradation of MEK1 by measuring reduction in MEK1 protein level at 0.5 uM after 24 hrs by Western blot analysis relative to control; assay type: cell-based; parameters: scale not given: the % may be the effect or the level left
[14] = Toxicity in Swiss albino mouse assessed as effect on adverse events at 50 mg/kg, ip; assay type: organism-based; conditions: in vivo
[15] = target: T1, von Hippel-Lindau disease tumor suppressor/Dual specificity mitogen-activated protein kinase kinase 2/Dual specificity mitogen-activated protein kinase kinase 1 (Homo sapiens); test: Protac activity against VHL/MEK1/2 in human HT-29 cells harboring with BRAF V600E variant assessed as reduction in phosphorylation of MEK at S218/222 residues after 24 hrs by Western blot analysis; assay type: cell-based
[16] = target: T2, von Hippel-Lindau disease tumor suppressor/Dual specificity mitogen-activated protein kinase kinase 2 (Homo sapiens); test: Protac activity against VHL/MEK2 in human HT-29 cells harboring with BRAF V600E variant assessed as degradation of MEK2 by measuring reduction in MEK2 protein level at 0.1 to 0.3 uM after 2 hrs by Western blot analysis; assay type: cell-based
[17] = target: von Hippel-Lindau disease tumor suppressor/Dual specificity mitogen-activated protein kinase kinase 1 (Homo sapiens, UniProt Q02750+P40337, V600E); test: (§2) Protac activity against VHL/MEK1 in human COLO205 cells harboring BRAF V600E variant assessed as degradation of MEK1 after 24 hrs by Western blot analysis; assay type: cell-based
Chain of von Hippel-Lindau disease tumor suppressor/Dual specificity mitogen-activated protein kinase kinase 1 (P40337 whole entry, looked up, stated change not applied): as the sequence (P40337 whole entry, looked up) above
Chain of von Hippel-Lindau disease tumor suppressor/Dual specificity mitogen-activated protein kinase kinase 1 (Q02750 whole entry, looked up, stated change not applied): as the sequence (Q02750 whole entry, looked up) above

[18] = target: T3, von Hippel-Lindau disease tumor suppressor/Dual specificity mitogen-activated protein kinase kinase 1 (Homo sapiens); test: as §2; assay type: cell-based
[19] = target: T3, von Hippel-Lindau disease tumor suppressor/Dual specificity mitogen-activated protein kinase kinase 1 (Homo sapiens); test: Protac activity against VHL/MEK1 in human UACC257 cells harboring with BRAF V600E variant assessed as degradation of MEK1 at 3 to 5 uM uM after 24 hrs by Western blot analysis; assay type: cell-based
[20] = target: T3, von Hippel-Lindau disease tumor suppressor/Dual specificity mitogen-activated protein kinase kinase 1 (Homo sapiens); test: as §1, with “VHL/MEK1” for “VHL/MEK2”, “SK-MEL-28” for “HT-29”, “MEK1” for “MEK2”; assay type: cell-based
[21] = target: T3, von Hippel-Lindau disease tumor suppressor/Dual specificity mitogen-activated protein kinase kinase 1 (Homo sapiens); test: Protac activity against VHL/MEK1 in human SK-MEL-28 cells harboring with BRAF V600E variant assessed as degradation of MEK1 at 0.1 to 0.3 uM after 4 hrs by Western blot analysis; assay type: cell-based
[22] = target: T3, von Hippel-Lindau disease tumor suppressor/Dual specificity mitogen-activated protein kinase kinase 1 (Homo sapiens); test: Protac activity against VHL/MEK1 in human SK-MEL-28 cells harboring with BRAF V600E variant assessed as degradation of MEK1 by measuring MEK1 protein level at 0.3 uM pretreated with MEK1/2 inhibitor, PD0325901 for 2 hrs followed by incubation with compound for 10 hrs by Western blot analysis; assay type: cell-based
[23] = target: T2, von Hippel-Lindau disease tumor suppressor/Dual specificity mitogen-activated protein kinase kinase 2 (Homo sapiens); test: Protac activity against VHL/MEK2 in human SK-MEL-28 cells harboring with BRAF V600E variant assessed as degradation of MEK2 by measuring reduction in MEK2 protein level at 0.1 to 0.3 uM after 2 hrs by Western blot analysis; assay type: cell-based
[24] = target: T2, von Hippel-Lindau disease tumor suppressor/Dual specificity mitogen-activated protein kinase kinase 2 (Homo sapiens); test: Protac activity against VHL/MEK2 in human SK-MEL-28 cells harboring with BRAF V600E variant assessed as degradation of MEK2 by measuring reduction in MEK2 protein level at 0.3 uM after 24 hrs by Western blot analysis relative to control; assay type: cell-based; parameters: scale not given: the % may be the effect or the level left
[25] = target: T3, von Hippel-Lindau disease tumor suppressor/Dual specificity mitogen-activated protein kinase kinase 1 (Homo sapiens); test: Protac activity against VHL/MEK1 in human HT-29 cells harboring with BRAF V600E variant assessed as degradation of MEK1 at 0.1 to 0.3 uM after 4 hrs by Western blot analysis; assay type: cell-based

For `Cc1ncsc1-c1ccc([C@H](C)NC(=O)[C@@H]2C[C@@H](O)CN2C(=O)[C@@H](NC(=O)CCCCCCCCCCNCCCONC(=O)c2ccc(F)c(F)c2Nc2ccc(I)cc2F)C(C)(C)C)cc1`, the Activity [1] was “inactive”, the Activity [2] was “inactive” and the Activity [3] was “Non-Toxic”. For the same molecule, the Activity [4] was “Dose-dependent effect”, the Activity [5] was “Tde” and the Activity [6] was “inactive”. For the same molecule, the Activity [7] was “inactive”, the Activity [8] was “Active” and the Activity [9] was “inactive”. The Activity [10] was “inactive”, the Activity [11] was “inactive” and the Activity (UACC-257) was “inactive”. The Activity [12] was “Active”, the “growth inhibition (GI)” value (HT-29) was “Dose-dependent effect” and the GI50 (HT-29; HT-29, 72 h) was 130 nM. The Activity [13] was greater than 80%, the Activity [14] was “Non-Toxic” and the Activity [15] was “Dose-dependent effect”. For the same molecule, the Activity [16] was “Active”, the DC50 [17] was 18 nM and the Activity [18] was “Dose-dependent effect”. For the same molecule, the Activity [19] was “Active”, the Activity [20] was “inactive” and the Activity [21] was “Active”. For the same molecule, the Activity [22] was “inactive”, the Activity [23] was “Active” and the Activity [24] was greater than 90%. For the same molecule, the Activity [25] was “Active”.
